From patent US9862724B2, “Pyrazolo[1,5-a]pyrimidine-based compounds, compositions comprising them, and methods of their use” (LEXICON PHARMACEUTICALS, INC., priority 2013, dated 2018)
Where two headings read alike, the source gives them in different places.

How the values were obtained:
[1] = target: T1, AAK1 (full-length human protein) (Homo sapiens, UniProt Q2M2I8); test: P81 filter plate assay; format: biochemical; details: 0.2 nM 2x AAK1, Mu2 substrate, 33P-ATP; class symbols
T1 construct: NP_055726.2
T1 sequence (Q2M2I8 1-863 isoform Q2M2I8-2): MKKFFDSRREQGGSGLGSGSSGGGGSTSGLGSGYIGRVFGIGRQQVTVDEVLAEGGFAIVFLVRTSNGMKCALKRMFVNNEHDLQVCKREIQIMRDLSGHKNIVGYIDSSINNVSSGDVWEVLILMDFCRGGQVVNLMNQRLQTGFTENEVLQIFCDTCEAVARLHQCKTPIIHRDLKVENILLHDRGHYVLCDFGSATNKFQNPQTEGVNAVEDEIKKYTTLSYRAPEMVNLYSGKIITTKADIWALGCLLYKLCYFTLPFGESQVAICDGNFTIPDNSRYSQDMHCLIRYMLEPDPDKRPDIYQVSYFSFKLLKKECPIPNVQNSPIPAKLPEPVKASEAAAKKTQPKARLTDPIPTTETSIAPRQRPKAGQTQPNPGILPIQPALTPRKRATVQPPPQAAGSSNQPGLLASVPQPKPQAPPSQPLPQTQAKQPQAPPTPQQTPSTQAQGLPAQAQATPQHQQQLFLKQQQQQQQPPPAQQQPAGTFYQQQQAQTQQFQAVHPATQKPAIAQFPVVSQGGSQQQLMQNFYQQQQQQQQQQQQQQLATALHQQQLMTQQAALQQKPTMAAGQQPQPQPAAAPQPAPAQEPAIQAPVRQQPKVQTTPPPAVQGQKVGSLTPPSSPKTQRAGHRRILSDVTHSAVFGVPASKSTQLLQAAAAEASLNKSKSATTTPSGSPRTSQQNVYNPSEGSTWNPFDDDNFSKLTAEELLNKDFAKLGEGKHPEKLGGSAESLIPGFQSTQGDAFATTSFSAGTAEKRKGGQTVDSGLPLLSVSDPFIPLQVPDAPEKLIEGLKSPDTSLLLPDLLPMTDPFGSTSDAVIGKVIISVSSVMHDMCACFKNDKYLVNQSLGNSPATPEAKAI
Procedure: Compounds were serially diluted into a Labcyte LDV plate (Labcyte, cat# LP-0200) using a Mutiprobe (PerkinElmer) and Biomek FX (Beckman Coulter) so that the highest compound concentration was at 96 μM. Compounds were then pinged (75 nL per well) into a Greiner 384-well reaction plate (Greiner, #781076) using an ECHO 550 Liquid Handler (Labcyte). A total of 12 μl reaction buffer (IMAP buffer containing Tween and DTT, from Molecular Devices) was then added to each well of columns 1 and 13 for the negative controls and 12 μl of 2×AAK1 (0.2 nM full-length human protein, NCBI accession no. NP_055726.2) was added to the remaining wells. Enzyme was then pre-incubated with compound for 10 minutes at RT. Reactions were initiated upon Minitrak (PerkinElmer) addition of 12 μl substrate mix containing 2×Mu2 (0.2 μM, full length human protein), 2× cold ATP (2 μM), and 1.3 μCi of hot ^33P-ATP. Reactions proceeded for one hour at RT. Meanwhile, Millipore 384-well P81 filter plates (Millipore, catalog # MZPHN0W10) were placed on a plate washer (Zoom ZW, from Titertek) and pre-wet with 50 μl […] phosphoric acid. Kinase reactions were then stopped upon addition of 24 μl of 2% phosphoric acid to each well and the Minitrak was then used to transfer 40 μl from each well into the pre-wet Millipore 384-well P81 filter plates. Reaction mixtures were incubated for 10 minutes at room temperature in the P81 plates, followed by washing five times with 100 μl/well of 1% phosphoric acid using the Zoom filter washer. The bottom of each filter plate was sealed followed by addition of 20 μl Microscint 40 to each well, sealing the top of the plates with Flashplate cover, and then waiting one hour until reading on the TopCount (PerkinElmer).

AAK1 = target: T2, AAK1 (Homo sapiens, UniProt Q2M2I8); test: HEK281 cell-based assay (phospho-mu2 Western blot in transfected HEK293F cells); details: HEK293F cells transfected with human AAK1 and AP2M1, 3 hours, read-out: CBA IC50
T2 construct: expressed in transfected cells; host or cells: HEK293F
T2 sequence (Q2M2I8 1-863 isoform Q2M2I8-2): as above
Procedure: HEK293F cells were cultured in media containing DMEM (Gibco, cat. #11965), 10% FBS (SAFC Biosciences, cat. #12103C), 1×GPS (glutamine, penicillin and streptomycin). On day one, cells were plated on a 10 cm dish so that they are ˜80% confluent at time of transfection. Roughly 12 million cells were in a 10 cm dish at time of transfection. On day two, each dish was transfected with 48 ug DNA and 144 ul Lipofectamine 2000 (Invitrogen, cat.#11668-019). The DNA was comprised of a mixture (per 10 cm dish) containing 3 ug AAK1/HA/pIRES (full length human, NCBI accession no. NP_055726.2), 45 μg Flag/AP2MI/pcDNA (full length human), and 1.5 ml OPTI-MEM. The Lipofectamine 2000 is made up of a mixture (per 10 cm dish) containing 144 μl Lipofectamine 2000 and 1.5 ml OPTI-MEM. Each mixture was transferred to individual 15 ml tubes and incubated at room temperature for 5 minutes, and then the two mixes were combined and incubated at room temperature for 20 minutes. Growth media was then aspirated from each 10 cm plate and replaced with 10 ml of DMEM+10% FBS (no GPS). Finally, 3 ml DNA/Lipofectamine mix was added to each 10 cm dish and mix gently followed by incubate of plate overnight at 37° C. and 5% CO2.
On day three, compounds were diluted in 100% DMSO at 1000× final concentration, followed by 3-fold serial dilutions for a total of 5 concentrations tested. Four compounds were tested per 10 cm dish. One ul of each compound dilution was then pipetted into a deep-well, 96-well plate, followed by addition of 500 μl DMEM+0.5% FBS into each well for a 2× final concentration of each compound. Cells were resuspended in a 10 cm dish by simple pipetting (HEK293 cells come off the plate that easy at this point) and then transferred to a 50 ml conical tube and pelleted by centrifugation at 1000 rpm for 5 min. Cell pellets were then resuspended in 2.75 ml DMEM+0.5% FBS per 10 cm dish and 100 μl of cell suspension transferred into each well of 96-well TC plate. Finally, 100 μl of 2× compound diluted in DMEM+0.5% FBS was then added into wells containing cell suspension for a 1× final concentration. Plates were then incubated at 37° C. and 5% CO2 for 3 hours followed by transferring of cell suspensions from each well into 12-tube PCR strips. The PCR strips were spun in a tip rack at 1000 rpm for 5 minutes to pellet cells and media was then removed by pipetting without disturbing the cell pellet.
To prepare for Western Blot analysis, cell pellets were resuspend in 40 ul 1×LDS-PAGE sample buffer (Invitrogen, cat.# NP0008)+2× Halt phophatase and protease inhibitor cocktail (Thermo Scientific, cat.#1861284), followed by sonicating each with microtip sonicator set at 5 for 8-10 seconds. Five ul of 10× NuPage Sample Reducing Agent (with […]) was to each sample followed by heat denaturing at 70 C for 10 min on PCR machine. A total of 10 μl per sample was loaded into each lane of a 4-20% Tris-Glycine Criterion 26-well gel (Biorad, cat.#345-0034) for the phospho-mu2 blot and 10 μl per lane in a 4-12% Bis-Tris (+MES buffer) NuPAGE 26-well gel (Invitrogen, cat.# WG1403BX10) for the mu2 blot. For controls, 2 ng of phospho-mu2 or 20 ng mu2/Flag proteins were loaded in the last well of each gel. After SDS-PAGE, samples on each gel were transferred to PVDF membrane using an iBlot and membranes were blocked for one hour in TBST+5% milk, followed by wash 3× for 5-10 min with TBST. Criterion gels were probed with rabbit anti-phospho-mu2 (1:5000; a rabbit polyclonal antibody produced by New England Peptide and affinity purified at Lexicon) in TBST+5% BSA, whereas, NuPAGE gels were probed with mouse anti-Flag (1:500; Sigma, cat.# F1804) in TBST+5% milk, and these primary antibodies were incubated overnight at 4° C. on a rocker. […]

Structure (SMILES) | IC50 [1] | IC50 (AAK1; class symbols) | IC50 (AAK1; numeric bounds)
COc1ncccc1-c1cnn2ccc(-c3ccn(CCOC(C)C)c(=O)c3)nc12 [1-(2-isopropoxyethyl)-4-(3-(2-methoxypyridin-3-yl)pyrazolo[1,5-a]pyrimidin-5-yl)pyridin-2(1H)-one] | ≤ 100 nM | ≤ 10 nM | –
COc1ncc(F)cc1-c1cnn2ccc(-c3ccn(CCC(C)(C)C)c(=O)c3)nc12 [1-(3,3-dimethylbutyl)-4-(3-(5-fluoro-2-methoxypyridin-3-yl)pyrazolo[1,5-a]pyrimidin-5-yl)pyridin-2(1H)-one] | ≤ 10 nM | ≤ 10 nM | –
COc1ncccc1-c1cnn2ccc(-c3ccn(CC(C)C)c(=O)c3)nc12 [1-isobutyl-4-(3-(2-methoxypyridin-3-yl)pyrazolo[1,5-a]pyrimidin-5-yl)pyridin-2(1H)-one] | ≤ 10 nM | ≤ 10 nM | –
COc1nc(C)ccc1-c1cnn2ccc(-c3ccn(CCC(C)C)c(=O)c3)nc12 [1-isopentyl-4-(3-(2-methoxy-6-methylpyridin-3-yl)pyrazolo[1,5-a]pyrimidin-5-yl)pyridin-2(1H)-one] | ≤ 10 nM | ≤ 10 nM | –
CC(C)CCn1ccc(-c2ccn3nccc3n2)cc1=O [1-isopentyl-4-(pyrazolo[1,5-a]pyrimidin-5-yl)pyridin-2(1H)-one] | – | ≤ 100 nM | –
CC(C)CCn1ccc(-c2ccn3ncc(Cl)c3n2)c(Cl)c1=O [3-chloro-4-(3-chloropyrazolo[1,5-a]pyrimidin-5-yl)-1-isopentylpyridin-2(1H)-one] | – | ≤ 100 nM | –
CCOc1ncccc1-c1cnn2ccc(-c3ccn(CCC(C)C)c(=O)c3)nc12 [4-(3-(2-ethoxypyridin-3-yl)pyrazolo[1,5-a]pyrimidin-5-yl)-1-isopentylpyridin-2(1H)-one] | ≤ 10 nM | ≤ 10 nM | –
COc1nc(C)ccc1-c1cnn2ccc(-c3ccn(CCC(F)(F)F)c(=O)c3)nc12 [4-(3-(2-methoxy-6-methylpyridin-3-yl)pyrazolo[1,5-a]pyrimidin-5-yl)-1-(3,3,3-trifluoropropyl)pyridin-2(1H)-one] | ≤ 100 nM | ≤ 10 nM | –
CC(C)(C)CCn1ccc(-c2ccn3ncc(Br)c3n2)cc1=O [4-(3-bromopyrazolo[1,5-a]pyrimidin-5-yl)-1-(3,3-dimethylbutyl)pyridin-2(1H)-one] | – | ≤ 100 nM | –
CC(C)Oc1cc(-c2ccn3ncc(CO)c3n2)ccn1 [(5-(2-isopropoxypyridin-4-yl)pyrazolo[1,5-a]pyrimidin-3-yl)methanol] | – | – | > 300 nM
COc1ncccc1-c1cnn2ccc(-c3ccc(C(=O)OC(C)C)cc3)nc12 [isopropyl 4-(3-(2-methoxypyridin-3-yl)pyrazolo[1,5-a]pyrimidin-5-yl)benzoate] | – | ≤ 10 nM | –
CC(C)OC(=O)c1ccc(-c2ccn3ncc(Br)c3n2)cc1 [isopropyl 4-(3-bromopyrazolo[1,5-a]pyrimidin-5-yl)benzoate] | – | ≤ 100 nM | –

The next lines start with the values.

IC50 [1] | IC50 (AAK1; class symbols) | IC50 (AAK1; numeric bounds) | Structure (SMILES)
≤ 10 nM | ≤ 10 nM | – | COCCn1ccc(-c2ccn3ncc(-c4cccnc4OC)c3n2)cc1=O [1-(2-methoxyethyl)-4-(3-(2-methoxypyridin-3-yl)pyrazolo[1,5-a]pyrimidin-5-yl)pyridin-2(1H)-one]
≤ 10 nM | ≤ 10 nM | – | COc1ncccc1-c1cnn2ccc(-c3ccn(CCC(C)(C)C)c(=O)c3)nc12 [1-(3,3-Dimethylbutyl)-4-(3-(2-methoxypyridin-3-yl)pyrazolo[1,5-a]pyrimidin-5-yl)pyridin-2(1H)-one]
≤ 10 nM | ≤ 10 nM | – | COc1ccc(F)cc1-c1cnn2ccc(-c3ccn(CCC(C)(C)C)c(=O)c3)nc12 [1-(3,3-Dimethylbutyl)-4-(3-(5-fluoro-2-methoxyphenyl)pyrazolo[1,5-a]pyrimidin-5-yl)pyridin-2(1H)-one]
≤ 10 nM | ≤ 10 nM | – | COc1ncccc1-c1cnn2ccc(-c3ccn(CCC(C)C)c(=O)c3)nc12 [1-isopentyl-4-(3-(2-methoxypyridin-3-yl)pyrazolo[1,5-a]pyrimidin-5-yl)pyridin-2(1H)-one]
– | ≤ 100 nM | – | CC(C)CCn1ccc(-c2ccn3ncc(C(F)(F)F)c3n2)cc1=O [1-isopentyl-4-(3-(trifluoromethyl)pyrazolo[1,5-a]pyrimidin-5-yl)pyridin-2(1H)-one]
≤ 1000 nM | ≤ 10 nM | – | COc1cc(-c2ccn3ncc(-c4cc(F)ccc4OC)c3n2)ccn1 [3-(5-fluoro-2-methoxyphenyl)-5-(2-methoxypyridin-4-yl)pyrazolo[1,5-a]pyrimidine]
≤ 10 nM | ≤ 10 nM | – | COc1ncccc1-c1cnn2ccc(-c3ccn(CCN4CCOCC4)c(=O)c3)nc12 [4-(3-(2-methoxypyridin-3-yl)pyrazolo[1,5-a]pyrimidin-5-yl)-1-(2-morpholinoethyl)pyridin-2(1H)-one]
– | – | > 300 nM | C1=C(c2ccn3nccc3n2)CCNC1 [5-(1,2,3,6-tetrahydropyridin-4-yl)pyrazolo[1,5-a]pyrimidine]
– | ≤ 100 nM | – | CC(C)OC(=O)c1ccc(-c2ccn3ncc(I)c3n2)cc1 [isopropyl 4-(3-iodopyrazolo[1,5-a]pyrimidin-5-yl)benzoate]
– | ≤ 1000 nM | – | CC(C)OC(=O)c1ccc(-c2ccn3nccc3n2)cc1 [isopropyl 4-(pyrazolo[1,5-a]pyrimidin-5-yl)benzoate]
– | ≤ 100 nM | – | COc1ncccc1-c1cnn2ccc(CCCN(C)C(=O)OC(C)C)nc12 [isopropyl (3-(3-(2-methoxypyridin-3-yl)pyrazolo[1,5-a]pyrimidin-5-yl)propyl)(methyl)carbamate]
– | ≤ 100 nM | – | COc1ncccc1-c1cnn2ccc(CCCCN(C)C(=O)OC(C)C)nc12 [isopropyl (4-(3-(2-methoxypyridin-3-yl)pyrazolo[1,5-a]pyrimidin-5-yl)butyl)(methyl)carbamate]
– | – | > 300 nM | CC(C)OC(=O)N(C)CCCCc1ccn2ncc(Br)c2n1 [isopropyl (4-(3-bromopyrazolo[1,5-a]pyrimidin-5-yl)butyl)(methyl)carbamate]
– | ≤ 100 nM | – | CC(C)(C)OC(=O)N1CC=C(c2ccn3nccc3n2)CC1 [tert-butyl 4-(pyrazolo[1,5-a]pyrimidin-5-yl)-5,6-dihydropyridine-1(2H)-carboxylate]
